Laboratory results published in patent publication US11351173B2, “Substituted pyrrolo[1,2-a]pyrimidines and their use in the treatment of medical disorders” (Bial—R&D Investments, S.A., priority 2014, dated 2022).
Values after ≈ are worked out from the molar mass of the structure shown.

How the values were obtained:
[1] = biological target: T1, glucocerebrosidase (Gcase) (Homo sapiens, UniProt P04062); assay: Glucocerebrosidase (Gcase) activation assay, 4-methylumbelliferyl-beta-D-glucopyranoside substrate, fluorescence readout; type: biochemical; conditions: for activation at 0.1 µM / Percent Gcase Activation, 0.1 μM Test Compound: test compound at 0.1 μM; for activation at 0.1 µM: read-out: Percent Gcase Activation, 0.1 μM Test Compound; for activation at 1 µM / Percent Gcase Activation, 1 μM Test Compound: test compound at 1.0 μM; for activation at 1 µM: read-out: Percent Gcase Activation, 1 μM Test Compound
T1 construct: micellar solution containing 10 nM GCase and 100 nM saposin C
T1 sequence (P04062 40-536): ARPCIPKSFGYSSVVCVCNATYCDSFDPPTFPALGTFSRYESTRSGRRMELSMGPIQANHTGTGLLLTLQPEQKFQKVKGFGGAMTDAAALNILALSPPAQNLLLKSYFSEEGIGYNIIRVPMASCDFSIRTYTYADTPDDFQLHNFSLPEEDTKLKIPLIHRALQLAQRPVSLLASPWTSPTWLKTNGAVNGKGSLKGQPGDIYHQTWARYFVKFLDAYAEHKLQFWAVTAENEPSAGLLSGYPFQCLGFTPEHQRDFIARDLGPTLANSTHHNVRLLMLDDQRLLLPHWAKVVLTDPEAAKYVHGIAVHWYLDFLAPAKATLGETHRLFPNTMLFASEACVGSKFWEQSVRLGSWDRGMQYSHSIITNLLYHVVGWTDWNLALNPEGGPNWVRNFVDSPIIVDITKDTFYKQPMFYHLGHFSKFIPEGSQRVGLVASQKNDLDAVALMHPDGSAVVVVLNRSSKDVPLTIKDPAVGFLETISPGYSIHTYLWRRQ
Outline: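 Fluorescence (ex 365 nm, em 440 nm) read after glycine pH 12.5 stop of a 15 min room-temperature reaction. GCase 10 nM plus saposin C 100 nM in PS/triton micelles, pH 4.7, preincubated 30 min with compound; substrate solution held 2 mM 4-MU-beta-glucoside. Screened at 1.0 and 0.1 μM; 8-point, 3-fold curves from 5 μM top.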

[2] = Compound solubility in water; conditions: for solubility: Compound Solubility in Water

| SMILES | activation at 0.1 µM [1] [%] | activation at 1 µM [1] [%] | solubility ([2]; water) [µg/mL] | solubility ([2]; water, in water) [µg/mL] | Compound Solubility in Water ([2]; water) [µg/mL] | Percent Gcase Activation, 0.1 μM Test Compound [1] | Percent Gcase Activation, 1 μM Test Compound [1] | Compound Solubility in Water ([2]; in water) [µg/mL] |
| --- | --- | --- | --- | --- | --- | --- | --- | --- |
| CCCCCO[C@H]1CC[C@@H](NC(=O)c2ccn3c(C)cc(C)nc23)C1 [III-179] | < 10 | > 60 | 12.3 (≈ 35.8 µM) | – | – | – | – | – |
| CCCCCOC1CCC(NC(=O)c2ccn3c(C)cc(C)nc23)CC1 (stereo not shown) [III-22] | > 20 | > 60 | 0.5 (≈ 1.4 µM) | – | – | – | – | – |
| C#CCCCO[C@H]1CC[C@H](NC(=O)c2ccn3c(C)cc(C)nc23)CC1 [III-194] | 10 to 20 | > 60 | 4.5 (≈ 12.7 µM) | – | – | – | – | – |
| CCCCO[C@H]1C[C@H](NC(=O)c2ccn3c(C)cc(C)nc23)C1 [III-198] | 10 to 20 | > 60 | 13.1 (≈ 41.5 µM) | – | – | – | – | – |
| Cc1cc(C)n2ccc(C(=O)NC3CCN(CC(F)(F)F)C3)c2n1 (stereo not shown) [III-235] | < 10 | < 30 | – | 25.1 (≈ 73.7 µM) | – | – | – | – |
| CCCCO[C@H]1CC[C@H](NC(=O)c2ccn3c(C)cc(F)nc23)CC1 [III-72] | < 10 | 30 to 60 | 14.3 (≈ 41.2 µM) | – | – | – | – | – |
| [2H]c1c(C([2H])([2H])[2H])nc2c(C(=O)Nc3ccc(-c4cocn4)cc3)cc([2H])n2c1C([2H])([2H])[2H] [III-158] | > 20 | > 60 | 0.07 (≈ 0.206 µM) | – | – | – | – | – |
| COCCCO[C@H]1CC[C@H](NC(=O)c2ccn3c(C)cc(C)nc23)CC1 [III-107] | < 10 | < 30 | 13.2 (≈ 36.7 µM) | – | – | – | – | – |
| Cc1cc(C)n2ccc(C(=O)NC3CCC(C4CCCO4)CC3)c2n1 (stereo not shown) [III-200] | – | – | – | – | 12.4 | * (less than 10% Gcase activation) | – | – |
| Cc1cc(C)n2ccc(C(=O)NC3CCC(C(=O)N(C)C4CC4)CC3)c2n1 (stereo not shown) [III-135] | – | – | – | – | 41.1 | * (less than 10% Gcase activation) | + (less than 30% Gcase activation) | – |
| C#Cc1ccc(C(C)(C)NC(=O)c2ccn3c(COC)cc(C)nc23)cc1 [III-62] | > 20 | > 60 | 2.7 (≈ 7.47 µM) | – | – | – | – | – |
| Cc1cc(C)n2ccc(C(=O)NC3CCC4(CCCCO4)CC3)c2n1 (stereo not shown) [III-112] | < 10 | – | 30.4 (≈ 89 µM) | – | – | – | – | – |
| CCCCCOC1CCC(NC(=O)c2ccn3c(C)cc(C)nc23)C1 (stereo not shown) [III-176] | 10 to 20 | > 60 | – | – | 4.6 | – | – | – |
| Cc1cc(C(F)F)nc2c(C(=O)Nc3ccc(-c4cocn4)cc3)ccn12 [III-30] | > 20 | 30 to 60 | 0.06 (≈ 0.163 µM) | – | – | – | – | – |
| CCCO[C@H]1CC[C@H](NC(=O)c2ccn3c(C)cc(Cl)nc23)CC1 [III-74] | > 20 | > 60 | 10.8 (≈ 30.9 µM) | – | – | – | – | – |
| CCC(F)(F)CN1CCC(NC(=O)c2ccn3c(C)cc(C)nc23)CC1 [III-204] | < 10 | < 30 | – | 21.1 (≈ 57.9 µM) | – | – | – | – |
| C#Cc1ccc(C(C)(C)NC(=O)c2ccn3c(C)cc(COC)nc23)cc1 [III-61] | > 20 | > 60 | 2.5 (≈ 6.92 µM) | – | – | – | – | – |
| Cc1cc(C)n2ccc(C(=O)NC3CCCC4(CCCCO4)C3)c2n1 (stereo not shown) [III-80] | 10 to 20 | – | 8.7 (≈ 25.5 µM) | – | – | – | +++ (Gcase activation greater than 60%) | – |
| CCCCO[C@H]1CC[C@H](NC(=O)c2ccn3c(COC)cc(C(C)C)nc23)CC1 [III-36] | > 20 | > 60 | 3.5 (≈ 8.72 µM) | – | – | – | – | – |
| CCCCCN(C)C(=O)[C@H]1CC[C@H](NC(=O)c2ccn3c(C)cc(C)nc23)CC1 [III-203] | < 10 | 30 to 60 | – | 17 (≈ 42.7 µM) | – | – | – | – |
| COc1cc(NC(=O)c2ccn3c(C)cc(C)nc23)ccc1-c1cocn1 [III-108] | > 20 | > 60 | 0.2 (≈ 0.552 µM) | – | – | – | – | – |
| Cc1ccnc2c(C(=O)NC3(C)CCOc4c(F)cccc43)ccn12 (stereo not shown) [III-258] | < 10 | > 60 | – | 7.6 (≈ 22.4 µM) | – | – | – | – |
| O=C(N[C@H]1CCCc2ccccc21)c1ccn2c(C3CC3)ccnc12 [III-161] | < 10 | 30 to 60 | 0.9 (≈ 2.72 µM) | – | – | – | – | – |
| CCCCCO[C@H]1CC[C@H](NC(=O)c2ccn3c(C(F)F)cc(C(F)F)nc23)CC1 [III-25] | > 20 | > 60 | 0.4 (≈ 0.931 µM) | – | – | – | – | – |
| Cc1cc(C)n2ccc(C(=O)N[C@H]3CC[C@H](OC4CC4)CC3)c2n1 [III-286] | 10 to 20 | > 60 | – | 8.8 (≈ 26.9 µM) | – | – | – | – |
| COc1cc(-c2cnco2)ccc1NC(=O)c1ccn2c(C)cc(C)nc12 [III-110] | > 20 | > 60 | 0.4 (≈ 1.1 µM) | – | – | – | – | – |
| CCCCCO[C@H]1CC[C@H](NC(=O)c2ccn3c(C)cc(C)nc23)C1 [III-178] | > 20 | > 60 | 9.2 (≈ 26.8 µM) | – | – | – | – | – |
| COCc1cc(C)n2ccc(C(=O)NC(C)(C)c3ccc(-c4cocn4)cc3)c2n1 [III-48] | 10 to 20 | > 60 | 3.5 (≈ 8.65 µM) | – | – | – | – | – |

Further lines, results first:

| activation at 0.1 µM [1] [%] | activation at 1 µM [1] [%] | solubility ([2]; water) [µg/mL] | solubility ([2]; water, in water) [µg/mL] | Compound Solubility in Water ([2]; water) [µg/mL] | Percent Gcase Activation, 0.1 μM Test Compound [1] | Percent Gcase Activation, 1 μM Test Compound [1] | Compound Solubility in Water ([2]; in water) [µg/mL] | SMILES |
| --- | --- | --- | --- | --- | --- | --- | --- | --- |
| > 20 | > 60 | 3.3 (≈ 8.79 µM) | – | – | – | – | – | Cc1cc(C)n2ccc(C(=O)NC3CCC4(CCCO4)c4ccccc43)c2n1 (stereo not shown) [III-143] |
| < 10 | < 30 | 23.9 (≈ 79.3 µM) | – | – | – | – | – | CO[C@H]1CC[C@H](NC(=O)c2ccn3c(C)cc(C)nc23)CC1 [III-89] |
| > 20 | > 60 | – | – | 0.02 | – | – | – | Cc1cc(C)n2ccc(C(=O)Nc3ccc(-c4ccco4)cc3)c2n1 [III-117] |
| > 20 | > 60 | 1 (≈ 2.71 µM) | – | – | – | – | – | Cc1cc(C)n2ccc(C(=O)N[C@H]3CC[C@@H](Oc4cccs4)CC3)c2n1 [III-189] |
| – | – | – | – | – | * (less than 10% Gcase activation) | + (less than 30% Gcase activation) | 20.3 | Cc1cc(C)n2ccc(C(=O)NC3CCC(c4ncco4)CC3)c2n1 (stereo not shown) [III-246] |
| 10 to 20 | > 60 | 5.8 (≈ 14.7 µM) | – | – | – | – | – | COCCOc1ccc2c(c1)C(NC(=O)c1ccn3c(C)cc(C)nc13)CCC2 (stereo not shown) [III-104] |
| < 10 | > 60 | 1 (≈ 3 µM) | – | – | – | – | – | CC(C)c1ccnc2c(C(=O)N[C@H]3CCCc4ccccc43)ccn12 [III-162] |
| – | – | – | – | 1.0 | *** (greater than 20% Gcase activation) | +++ (Gcase activation greater than 60%) | – | Cc1cc(C)n2ccc(C(=O)NC3CCC(c4cccs4)CC3)c2n1 (stereo not shown) [III-188] |
| > 20 | > 60 | 0.003 (≈ 0.00861 µM) | – | – | – | – | – | Cc1cc(C)n2ccc(C(=O)Nc3ccc(-c4cccs4)cn3)c2n1 [III-116] |
| > 20 | > 60 | 0.4 (≈ 1.14 µM) | – | – | – | – | – | COCc1cc(C)n2ccc(C(=O)N[C@H]3CCCc4ccccc43)c2n1 [III-42] |
| – | – | – | 0.06 (≈ 0.181 µM) | – | *** (greater than 20% Gcase activation) | +++ (Gcase activation greater than 60%) | – | Cc1cc(C)n2ccc(C(=O)Nc3ccc(-c4ncco4)cc3)c2n1 [III-274] |
| > 20 | > 60 | 1.7 (≈ 4.76 µM) | – | – | – | – | – | Cc1cc(C)n2ccc(C(=O)NC3CCOc4c(F)ccc(F)c43)c2n1 (stereo not shown) [III-171] |
| > 20 | > 60 | 1.8 (≈ 5.37 µM) | – | – | – | – | – | Cc1cc(C)n2ccc(C(=O)NC3(C)CCOc4ccccc43)c2n1 (stereo not shown) [III-181] |
| > 20 | > 60 | < 1.5 | – | – | – | – | – | C#Cc1ccc(NC(=O)c2ccn3c(C)cc(C)nc23)cc1 [III-2] |
| > 20 | > 60 | 0.3 (≈ 0.868 µM) | – | – | – | – | – | Cc1cc(C)n2ccc(C(=O)NC34CCC(CC3)c3ccccc34)c2n1 [III-126] |
| > 20 | > 60 | 0.7 (≈ 1.97 µM) | – | – | – | – | – | Cc1cc(C(F)F)n2ccc(C(=O)NC3CCCc4ccccc43)c2n1 (stereo not shown) [III-28] |
| < 10 | < 30 | 30.6 (≈ 89.9 µM) | – | – | – | – | – | Cc1cc(C)n2ccc(C(=O)NC3CCc4nc(C)sc4C3)c2n1 (stereo not shown) [III-111] |
| > 20 | > 60 | 0.2 (≈ 0.511 µM) | – | – | – | – | – | O=C(NC1CCCc2ccccc21)c1ccn2c(C(F)F)cc(C(F)F)nc12 (stereo not shown) [III-24] |
| 10 to 20 | > 60 | – | 3.8 (≈ 11.8 µM) | – | – | – | – | Cc1cc(C)n2ccc(C(=O)NC3CCOc4ccccc43)c2n1 (stereo not shown) [III-211] |
| > 20 | > 60 | 3.4 (≈ 10.6 µM) | – | – | – | – | – | [2H]C1(NC(=O)c2ccn3c(C)cc(C)nc23)CCCc2ccccc21 (stereo not shown) [III-131] |
| < 10 | 30 to 60 | 0.2 (≈ 0.502 µM) | – | – | – | – | – | Cc1cc(C)n2ccc(C(=O)Nc3ccc4c(c3)C(Oc3ccccn3)CC4)c2n1 (stereo not shown) [III-121] |
